In ChEMBL document CHEMBL1142965, “(Aryloxyacetylamino)benzoic acid analogues: A new class of hypoxia-inducible factor-1 inhibitors” (J Med Chem, 2007) one finds IC50 and Activity data, which are given here for 32 compounds.

Active and inactive are the calls of the source. No cut-off for these calls is given here.

The test system of test [1] is AGS. Put plainly: cells. Particulars: Homo sapiens.
Description: Inhibition of hypoxia induced HIF1 transcriptional activity in human AGS cells by cell-based HRE reporter assay
For test [2], the target named is Hypoxia inducible factors; HIF-1-alpha, HIF-2-alpha (Homo sapiens, UniProt Q16665+Q99814). Put plainly: Inhibition of hypoxia induced HIF1 transcriptional activity in human Hep3B cells by cell-based HRE reporter assay. It is filed as functional. Particulars: hep 3b2. In general terms: In a reporter assay the amount or activity of a reporter protein is the signal.

In test [3] the target is Hypoxia-inducible factor 1-alpha (Homo sapiens) (UniProt Q16665). Put plainly: Inhibition of hypoxia-induced HIF1-alpha accumulation in human Hep3B cells. The format is functional, cell-based. Particulars: Hep 3B2.
The nature of test [4]: Suppression of hypoxia-induced VEGF mRNA expression in human Hep3B cells. It is filed as functional, cell-based. Particulars: Hep 3B2.
Test [5] can be described thus: Suppression of hypoxia-induced HIF1-alpha mRNA expression in human Hep3B cells. The format is functional, cell-based. Particulars: Hep 3B2.
Test [6] in a line: Suppression of hypoxia-induced EPO mRNA expression in human Hep3B cells. Particulars: Hep 3B2. The format is functional, cell-based.
A short description of test [7]: Suppression of hypoxia-induced EPO mRNA expression in human Hep3B cells at 10 uM. The format is functional, cell-based. Particulars: Hep 3B2.
A short description of test [8]: Suppression of hypoxia-induced VEGF mRNA expression in human Hep3B cells at 10 uM. It is filed as functional, cell-based. Particulars: Hep 3B2.

Hypoxia-inducible factor 1-alpha (Homo sapiens), sequence (Q16665 whole entry, looked up): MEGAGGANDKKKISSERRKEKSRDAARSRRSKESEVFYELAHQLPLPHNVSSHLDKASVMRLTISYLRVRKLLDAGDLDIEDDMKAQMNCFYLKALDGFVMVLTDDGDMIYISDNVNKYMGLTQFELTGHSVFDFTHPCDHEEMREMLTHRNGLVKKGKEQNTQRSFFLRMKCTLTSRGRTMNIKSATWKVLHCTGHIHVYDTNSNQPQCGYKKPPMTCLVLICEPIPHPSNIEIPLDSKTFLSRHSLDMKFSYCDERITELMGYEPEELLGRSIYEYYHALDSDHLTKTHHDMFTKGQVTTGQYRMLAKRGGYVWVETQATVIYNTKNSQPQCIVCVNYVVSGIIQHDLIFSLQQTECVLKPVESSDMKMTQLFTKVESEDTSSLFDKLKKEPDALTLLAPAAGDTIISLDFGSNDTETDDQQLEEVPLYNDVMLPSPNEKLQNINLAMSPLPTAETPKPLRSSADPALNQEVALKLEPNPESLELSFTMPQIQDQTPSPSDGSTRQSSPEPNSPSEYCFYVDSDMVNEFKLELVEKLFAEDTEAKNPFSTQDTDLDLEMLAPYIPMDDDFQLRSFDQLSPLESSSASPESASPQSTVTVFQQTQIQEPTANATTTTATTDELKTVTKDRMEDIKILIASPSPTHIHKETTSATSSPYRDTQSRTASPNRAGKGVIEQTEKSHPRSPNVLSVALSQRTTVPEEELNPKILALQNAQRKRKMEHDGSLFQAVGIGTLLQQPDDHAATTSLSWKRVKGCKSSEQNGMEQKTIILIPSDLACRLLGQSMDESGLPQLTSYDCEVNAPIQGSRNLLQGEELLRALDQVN

Consider `O=C(COc1ccccc1)Nc1cccc(C(=O)O)c1`, for which the IC50 in test [1] and in test [2] was above 30 µM in each case.

With `NC(=O)c1ccc(O)c(NC(=O)COc2ccc(C34CC5CC(CC(C5)C3)C4)cc2)c1`, the half-inhibitory concentration (IC50) in test [1] is 1.5 µM; in test [2], above 30 µM.

Take `O=C(COc1ccc(F)cc1)Nc1cccc(C(=O)O)c1`: the IC50 in test [1] and in test [2] was above 30 µM each time.

Turning to `O=C(COc1ccc(-c2cccs2)cc1)Nc1cccc(C(=O)O)c1`, the IC50 in test [1] and in test [2] was above 30 µM throughout.

On to `O=C(COc1ccc(C23CC4CC(CC(C4)C2)C3)cc1)Nc1cccc(C(=O)Nc2ccc(Cl)cc2)c1`, for which the half-inhibitory concentration (IC50) was 9.5 µM in test [1] and above 30 µM in test [2].

With `COc1cccc(-c2ccc(OCC(=O)Nc3cccc(C(=O)O)c3)cc2)c1`, the values for the half-maximal inhibitory concentration (IC50) in test [1] and in test [2] were 35 µM and above 30 µM, respectively.

Compound `OCc1ccc(-c2nn(Cc3ccccc3)c3ccccc23)o1` yielded an IC50 in test [1] of 2 µM.

For the compound `O=C(COc1ccc(Cl)cc1)Nc1cccc(C(=O)O)c1`, the IC50 is 10 µM in test [1] and above 30 µM in test [2].

Take `O=C(COc1ccc(C23CC4CC(CC(C4)C2)C3)cc1)Nc1cc(C(=O)O)ccc1O`: the IC50 in test [1] was found to be 0.35 µM; in test [2] it was 0.4 µM. Further, the Activity entry in test [3] is “Dose-dependent effect”.

For the compound `CC(C)(C)c1ccc(OCC(=O)Nc2cccc(C(N)=O)c2)cc1`, the IC50 in test [1] and in test [2] was above 30 µM in each case.

Regarding `CN(C)C(=O)c1ccc(O)c(NC(=O)COc2ccc(C34CC5CC(CC(C5)C3)C4)cc2)c1`, the half-maximal inhibitory concentration (IC50) in test [1] and in test [2] was above 30 µM each time.

As for `CC(=O)c1ccc(OCC(=O)Nc2cccc(C(=O)O)c2)cc1`, the 50% inhibitory concentration (IC50) in test [1] and in test [2] was above 30 µM in each case.

In the case of `O=C(COc1ccc(I)cc1)Nc1cccc(C(=O)O)c1`, the results for the IC50 in test [1] and in test [2] were 3.5 µM and 7.2 µM, respectively.

In test [2], `O=C(COc1ccc(C23CC4CC(CC(C4)C2)C3)cc1)Nc1ccc(C(=O)O)cc1` registered an IC50 above 30 µM.

Consider `O=C(COc1ccc(-c2cccc([N+](=O)[O-])c2)cc1)Nc1cccc(C(=O)O)c1`, for which the IC50 in test [1] and in test [2] was above 30 µM each time.

`NC(=O)c1cccc(NC(=O)COc2ccccc2)c1`: the IC50 in test [1] and in test [2] was above 30 µM each time.

Regarding `O=C(COc1ccc(C23CC4CC(CC(C4)C2)C3)cc1)Nc1cccc(C(=O)O)c1`, the IC50 came to 2.5 µM in test [1] and 5 µM in test [2]. The Activity result in test [4], in test [6] and in test [3] was “Dose-dependent effect” each time. For the same compound, in test [5], the outcome was inactive.

On to `COC(=O)c1cccc(NC(=O)COc2ccc(C34CC5CC(CC(C5)C3)C4)cc2)c1`, for which the results for the IC50 in test [1] and in test [2] were 7.4 µM and 9.9 µM, respectively.

On to `NC(=O)c1cccc(NC(=O)COc2ccc(C34CC5CC(CC(C5)C3)C4)cc2)c1`, for which the IC50 in test [1] is 1 µM; in test [2], 4.3 µM. Also, in test [3], the Activity entry is “Dose-dependent effect”.

The compound `O=C(COc1ccc(C23CC4CC(CC(C4)C2)C3)cc1)Nc1ccccc1C(=O)O` had a concentration for half-maximal inhibition (IC50) in test [2] of 10.5 µM.

`O=C(COc1ccc(C23CC4CC(CC(C4)C2)C3)cc1)Nc1cccc(C(=O)Nc2ccc3ccccc3c2)c1`: the concentration for half-maximal inhibition (IC50) in test [1] and in test [2] was above 30 µM throughout.

In the case of `Cc1ccc(OCC(=O)Nc2cccc(C(=O)O)c2)cc1`, the half-inhibitory concentration (IC50) in test [1] and in test [2] was above 30 µM in each case.

As to `O=C(COc1ccc(C23CC4CC(CC(C4)C2)C3)cc1)Nc1cc(C(=O)NCc2ccco2)ccc1O`, the half-maximal inhibitory concentration (IC50) came to 5.9 µM in test [1] and 12.6 µM in test [2].

With `O=C(COc1ccc(C23CC4CC(CC(C4)C2)C3)cc1)Nc1cccc(C(=O)NCc2ccco2)c1`, the values for the 50% inhibitory concentration (IC50) in test [1] and in test [2] were 2.1 µM and 14.08 µM, respectively.

As to `O=C(COc1ccc(Br)cc1)Nc1cccc(C(=O)O)c1`, the IC50 in test [1] was 1.6 µM; in test [2] it was above 30 µM.

Regarding `O=C(COc1ccc(C23CC4CC(CC(C4)C2)C3)cc1)Nc1cccc(C(=O)NCCc2ccncc2)c1`, the IC50 worked out at 3.1 µM in test [1] and 8.2 µM in test [2].

As for `COC(=O)c1ccc(O)c(NC(=O)COc2ccc(C34CC5CC(CC(C5)C3)C4)cc2)c1`, the IC50 in test [1] worked out at 0.7 µM; in test [2] it was 2.6 µM. The result in test [7] and in test [8] was Active. Also, the Activity result in test [4], in test [6] and in test [3] was “Dose-dependent effect” in each case. For the same compound, in test [5], the outcome was inactive.

As to `Cc1ccc(-c2ccc(OCC(=O)Nc3cccc(C(=O)O)c3)cc2)cc1`, the concentration for half-maximal inhibition (IC50) is above 30 µM in test [1] and 23.2 µM in test [2].

As to `Cc1ccc(OCC(=O)Nc2cccc(C(N)=O)c2)cc1`, the IC50 in test [1] and in test [2] was above 30 µM each time.

With `NC(=O)c1cccc(NC(=O)COc2ccc([N+](=O)[O-])cc2)c1`, the IC50 in test [1] and in test [2] was above 30 µM each time.

On to `CN(C)CCNC(=O)c1ccc(O)c(NC(=O)COc2ccc(C34CC5CC(CC(C5)C3)C4)cc2)c1`, for which the IC50 was 3 µM in test [1] and above 30 µM in test [2].

Turning to `CC(C)(C)c1ccc(OCC(=O)Nc2cccc(C(=O)O)c2)cc1`, the IC50 in test [1] was determined as 9.5 µM; in test [2], 29 µM.

One may read the IC50 as the midpoint of a concentration-inhibition curve. Lower therefore signals greater potency.
